Earlier results, collected in patent US20100273749A1, “Method for Treating Dry-Eye Syndrome” (priority 2006, published 2010).

System: ACAT
Settings: several animal studies, nonselective ACAT inhibitors

SMILES | reduction of atherosclerotic plaques
CC(C)c1cc(C(C)C)c(CC(=O)NS(=O)(=O)Oc2c(C(C)C)cccc2C(C)C)c(C(C)C)c1 [avasimibe] | promising reduction of atherosclerotic plaques
CCCCCCCCN1CCc2c(C)c(CC(=O)O)c(C)c(NC(=O)C(C)(C)C)c21 [pactimibe] | promising reduction of atherosclerotic plaques
